Data published in patent US20260216197A1, “WRN HELICASE INHIBITOR” (SUZHOU PUHE BIOPHARMA CO., LTD., priority 2022, published 2026).

Key:
[1] = tested on: MSS colorectal cancer HT-29 cell line; assay: 2D anti-proliferative activity, MSS HT-29 cells (CTG, 5 days); format: cell-based
Method: The molecules of the present disclosure were tested for their anti-proliferative activity against MSS tumor cells.
(§1) The MSS HT-29 colorectal cancer cells were cultured in McCoy's 5A medium containing 10% FBS and 1% penicillin-streptomycin in a 37° C., 5% CO2 constant temperature incubator. A 40 μL cell suspension was added to each well of a 384-well microplate. Using Echo, 40 nL of compounds at different concentrations was dispensed into each well, followed by incubation in a 37° C., 5% CO2 constant temperature incubator for 5 days. Then, 40 μL of CTG solution (Promega, Cat No. G7573) was added to each well, and the plate was incubated in the dark in a 37° C., 5% CO2 constant temperature incubator for 30 minutes. Luminescence was measured using an Envision multi-function microplate reader (Perkin Elmer, Model: Envision 2104). The luminescent signal was proportional to the amount of ATP in the system, and the amount of ATP directly represented the number of living cells in the system.

WRN helicase = WRN helicase (Homo sapiens, UniProt Q14191); assay: WRN helicase hydrolysis/unwinding of double-stranded DNA (fluorescence); format: biochemical
Chain of WRN helicase (Q14191 whole entry): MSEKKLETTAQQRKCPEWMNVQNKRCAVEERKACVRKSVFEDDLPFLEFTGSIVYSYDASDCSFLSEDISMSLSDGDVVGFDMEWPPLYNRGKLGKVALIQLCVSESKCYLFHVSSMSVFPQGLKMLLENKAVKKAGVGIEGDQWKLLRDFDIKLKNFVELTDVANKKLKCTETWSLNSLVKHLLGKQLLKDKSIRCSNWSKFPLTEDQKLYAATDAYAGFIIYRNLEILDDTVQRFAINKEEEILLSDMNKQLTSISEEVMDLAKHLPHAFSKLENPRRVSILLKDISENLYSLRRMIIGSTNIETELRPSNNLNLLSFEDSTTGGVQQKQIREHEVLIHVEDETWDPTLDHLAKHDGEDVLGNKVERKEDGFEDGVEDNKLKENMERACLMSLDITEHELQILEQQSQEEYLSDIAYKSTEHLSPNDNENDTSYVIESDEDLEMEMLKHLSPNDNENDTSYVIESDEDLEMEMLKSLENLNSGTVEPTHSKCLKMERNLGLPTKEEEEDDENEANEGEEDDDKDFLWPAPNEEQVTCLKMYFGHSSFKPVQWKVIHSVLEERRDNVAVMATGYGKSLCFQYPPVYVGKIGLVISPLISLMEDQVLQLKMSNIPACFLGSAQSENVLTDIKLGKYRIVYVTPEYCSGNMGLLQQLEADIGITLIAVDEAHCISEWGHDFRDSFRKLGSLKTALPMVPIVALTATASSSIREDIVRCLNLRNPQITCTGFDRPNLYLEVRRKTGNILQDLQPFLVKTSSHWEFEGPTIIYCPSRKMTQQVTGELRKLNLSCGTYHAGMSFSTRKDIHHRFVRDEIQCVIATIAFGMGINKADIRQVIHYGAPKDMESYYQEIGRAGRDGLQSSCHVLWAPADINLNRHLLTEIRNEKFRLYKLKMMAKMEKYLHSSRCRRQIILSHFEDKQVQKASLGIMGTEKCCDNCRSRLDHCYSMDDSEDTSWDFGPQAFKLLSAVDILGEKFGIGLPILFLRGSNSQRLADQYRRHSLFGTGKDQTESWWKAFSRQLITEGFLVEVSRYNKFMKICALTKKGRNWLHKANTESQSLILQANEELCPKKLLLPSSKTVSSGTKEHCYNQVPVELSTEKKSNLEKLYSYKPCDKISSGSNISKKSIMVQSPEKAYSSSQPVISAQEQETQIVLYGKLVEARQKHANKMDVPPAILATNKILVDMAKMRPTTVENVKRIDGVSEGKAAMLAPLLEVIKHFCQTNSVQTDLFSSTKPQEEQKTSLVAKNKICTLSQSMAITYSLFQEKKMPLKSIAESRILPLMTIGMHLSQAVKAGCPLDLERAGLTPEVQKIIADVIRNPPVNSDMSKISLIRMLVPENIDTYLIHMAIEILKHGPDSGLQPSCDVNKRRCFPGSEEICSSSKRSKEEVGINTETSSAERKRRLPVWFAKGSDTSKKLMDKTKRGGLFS
Method: The activity of the molecules of the present disclosure on the hydrolysis of double-stranded PP-6TR DNA by WRN helicase was tested.
The working solution and buffer were prepared, and the test compound was dissolved in DMSO followed by a4-fold dilution (with a final concentration of 10 μM as the starting concentration). Then, 0.2 μL of the test compound solution was added to a384-well plate, followed by 10 μL of (2×) WRN enzyme solution. The mixture was incubated in the dark for 30 minutes, after which 10 μL of substrate detection solution containing double-stranded DNA was added to initiate the reaction (DNA length: 19 bp, labeled with TAMRA at the 3′ end and BHQ2 at the 5′ end). The mixture was incubated at room temperature for 60 minutes. The inhibitory activity (IC50) against the WRN enzyme was calculated based on the fluorescence change (Ex530/Em590) between the blank group (DMSO) and the compound group.

[2] = tested on: MSI-H colorectal cancer SW48 cell line; assay: 2D anti-proliferative activity, MSI-H SW48 cells (CTG, 5 days); format: cell-based
Method: The molecules of the present disclosure were tested for their anti-proliferative activity against MSI-H tumor cells.
The proliferation of tumor cells with microsatellite instability MSI-H is sensitive to WRN inhibitors, while the proliferation of microsatellite stable (MSS) tumor cells is insensitive to WRN inhibitors. By testing the activities of the two, it is shown that the molecules of the present disclosure have an inhibitory and synthetic lethal effect on WRN at the cellular level.
as §1, with “MSI-unstable SW48” for “MSS HT-29”, “RPMI 1640” for “McCoy's 5A”

[3] = Liver microsome stability test; format: in vitro ADME; conditions: human liver microsomes 0.5 mg/mL, compound 1 μM, NADPH 1 mM, 60 minutes
Method: The liver microsome stability test of the compounds is as follows:
The compounds of the present disclosure were subjected to a liver microsome stability test. The compounds to be tested were co-incubated with liver microsomes of different species with or without the addition of NADPH. The final concentration of the compounds to be tested in the test system was 1 μM, the final concentration of NADPH was 1 mM, and the final concentration of liver microsomes was 0.5 mg/mL.

[4] = tested on: SW 48 (MSI-H) colorectal cancer cells; assay: In vivo pharmacodynamic assay, SW48 xenograft in nude mice; design: species or system BALB/c nude mice; conditions: 120 mg/kg, QD, oral
Method: In vivo pharmacodynamic assay in BALB/c nude mice. Details are as follows:
SW 48 (MSI-H) colorectal cancer cells were cultured (L15 medium with 10% fetal bovine serum), and then inoculated into 6-8-week old female BALB/c nude mice (weighing about 20 g), wherein all mice were inoculated subcutaneously. The mice were cultured in an SPF-grade experimental environment, and all mice had free access to commercially certified standard diets. When the average tumor volume of the mice grew to about 150 mm^3, the test compound was orally administered daily. The dosage was as follows: blank group vehicle (10% HP-β-CD aqueous solution, pH-7). The dosage of the administration group was 120 mg/kg, 50 mg/kg, or 20 mg/kg, once a day. The tumor volume was measured with a two-dimensional caliper three times a week, and the animals were weighed every day. […] The tumor volume was calculated using the formula: V=½a*b^2, where a represents the long diameter of the tumor, and b represents the short diameter of the tumor.

[5] = Pharmacokinetic evaluation in mice; format: in vivo, CD1 female mice
Method: CD1 female mice were used as test animals and the drug was administered orally/intravenously (oral dosage: 10 mg/kg, intravenous dosage: 2 mg/kg).
Assay protocol: The oral group consisted of 3 mice per group (vehicle: 10% Hβ-CD-pH7.4), and the intravenous group consisted of 3 mice per group. […] The blood concentrations in plasma after oral and intravenous administration of mice were determined by LC/MS/MS, respectively.

Q: With `CCc1c(N2CCN(C(=O)c3ncnc(C)c3O)CC2)c(=O)n2nc(C3=CCOCC3)nc2n1CC(=O)Nc1ccc(C(F)(F)F)c2ccsc12` [Compound H1] as the molecule, how does the IC50 [1] read?
A: > 10000 nM

Q: What about the IC50 (WRN helicase) of the same molecule?
A: 1.5 nM

Q: What about the “Average value/ Inhibition rate” value ([2]; 0.038146973 nM) of the same molecule?
A: −7.8792

Q: What about the “Test 1/ Inhibition rate” value ([2]; 0.038146973 nM) of the same molecule?
A: −7.3699

Q: What about the “Test 2/ Inhibition rate” value ([2]; 0.038146973 nM) of the same molecule?
A: −8.3885

Q: And the “Average value/ Inhibition rate” value ([2]; 0.152587891 nM)?
A: −7.2326

Q: And the “Test 1/ Inhibition rate” value ([2]; 0.152587891 nM)?
A: −8.9847

Q: And the “Test 2/ Inhibition rate” value ([2]; 0.152587891 nM)?
A: −5.4804

Q: And the “Average value/ Inhibition rate” value ([2]; 0.610351563 nM)?
A: −7.2423

Q: What about the “Test 1/ Inhibition rate” value ([2]; 0.610351563 nM) of the same molecule?
A: −8.9821

Q: And the “Test 2/ Inhibition rate” value ([2]; 0.610351563 nM)?
A: −5.5025

Q: What about the “Average value/ Inhibition rate” value ([2]; 2.44140625 nM) of the same molecule?
A: −1.2893

Q: And the “Test 1/ Inhibition rate” value ([2]; 2.44140625 nM)?
A: −5.0894

Q: What about the “Test 2/ Inhibition rate” value ([2]; 2.44140625 nM) of the same molecule?
A: 2.5108

Q: And the “Average value/ Inhibition rate” value ([2]; 9.765625 nM)?
A: −9.8115

Q: And the “Test 1/ Inhibition rate” value ([2]; 9.765625 nM)?
A: −9.6799

Q: And the “Test 2/ Inhibition rate” value ([2]; 9.765625 nM)?
A: −9.9432

Q: What about the “inhibitory activity on SW48 cells” value ([2]; 39 nM) of the same molecule?
A: high inhibitory activity

Q: What about the “Average value/ Inhibition rate” value ([2]; 39.0625 nM) of the same molecule?
A: 12.6131

Q: And the “Test 1/ Inhibition rate” value ([2]; 39.0625 nM)?
A: 9.3323

Q: What about the “Test 2/ Inhibition rate” value ([2]; 39.0625 nM) of the same molecule?
A: 15.8938

Q: What about the “Average value/ Inhibition rate” value ([2]; 156.25 nM) of the same molecule?
A: 98.3044

Q: What about the “Test 1/ Inhibition rate” value ([2]; 156.25 nM) of the same molecule?
A: 98.4846

Q: And the “Test 2/ Inhibition rate” value ([2]; 156.25 nM)?
A: 98.1243

Q: What about the “Average value/ Inhibition rate” value ([2]; 625 nM) of the same molecule?
A: 98.5020

Q: And the “Test 1/ Inhibition rate” value ([2]; 625 nM)?
A: 98.3268

Q: What about the “Test 2/ Inhibition rate” value ([2]; 625 nM) of the same molecule?
A: 98.6771

Q: And the “Average value/ Inhibition rate” value ([2]; 2500 nM)?
A: 99.9213

Q: And the “Test 1/ Inhibition rate” value ([2]; 2500 nM)?
A: 99.6262

Q: What about the “Test 2/ Inhibition rate” value ([2]; 2500 nM) of the same molecule?
A: 100.2164

Q: What about the “Average value/ Inhibition rate” value ([2]; 10000 nM) of the same molecule?
A: 100.6963

Q: And the “Test 1/ Inhibition rate” value ([2]; 10000 nM)?
A: 100.7430

Q: And the “Test 2/ Inhibition rate” value ([2]; 10000 nM)?
A: 100.6495

Q: And the IC50 ([2]; 5 days)?
A: 55 nM

Q: What about the “Human Clint μL/min/mg Protein” value [3] of the same molecule?
A: 14.8 μL/min/mg Protein

Q: And the “Human Clint/(mL/min/kg)” value [3]?
A: 18.5 mL/min/kg

Q: What about the TGI [4] of the same molecule?
A: 105%

Q: What about the “Tumor volume (mm^3)-D 1” value ([4]; day 1) of the same molecule?
A: 171 mm^3

Q: What about the “Tumor volume (mm^3)-D 21” value ([4]; day 21) of the same molecule?
A: 28 mm^3

Q: And the “in vivo exposure compared with reference molecule A1” value [5]?
A: higher in vivo exposure

Q: And the AUC0-24 ([5]; IV 2 mg/kg)?
A: 1421 ng·h/mL

Q: What about the C0 ([5]; IV 2 mg/kg) of the same molecule?
A: 3299 ng/mL

Q: And the Cl ([5]; IV 2 mg/kg)?
A: 23.4 mL/min/kg

Q: And the T1/2 ([5]; IV 2 mg/kg)?
A: 1.6 h

Q: And the AUC0-24 ([5]; PO 10 mg/kg)?
A: 5599 ng·h/mL

Q: What about the Cmax ([5]; PO 10 mg/kg) of the same molecule?
A: 4645 ng/mL

Q: What about the T1/2 ([5]; PO 10 mg/kg) of the same molecule?
A: 1.2 h

Q: And the Tmax ([5]; PO 10 mg/kg)?
A: 0.5 h

Q: What about the F ([5]; PO 10 mg/kg vs IV 2 mg/kg) of the same molecule?
A: 79%
